Test results reported in article PMC4445981, “The glutamate transport inhibitor DL-Threo-β-Benzyloxyaspartic acid (DL-TBOA) differentially affects SN38- and oxaliplatin-induced death of drug-resistant colorectal cancer cells” (BMC Cancer, 2015).

Assays:
Assay type in all cases: cell-based, human
[1] = test system: [3H]-D-Asp uptake (glutamate transporter activity) in HCT116-PAR cells; assay: [3H]-D-Asp uptake assay, HCT116-PAR; details: HCT116-PAR, 100 nM [3H]-D-Asp, 6 min, 37 °C
Experimental: (§1) We therefore next determined glutamate transporter activity (as uptake of the substrate [^3H]-D-Asp following a 6-min incubation in buffer supplemented with a tracer concentration of 100 nM [^3H]-D-Asp). […] To determine which transporter(s) was responsible for the [^3H]-D-Asp uptake, we assessed the effect of DL-TBOA, a nonselective inhibitor of EAATs, and UCPH-101, a specific SLC1A3 inhibitor [16, 28, 29]. […] Basal [^3H]-D-Asp uptake was decreased by about 60 % in SN38-resistant compared to parental HCT116 cells, whereas that in SN38-resistant LoVo cells was nearly tripled compared to parental LoVo cells.
(§2) The [^3H]-D-Asp uptake assay was performed essentially as in [30]. Briefly, cells were split into poly-D-lysine-coated white 96-well plates (PerkinElmer). A similar number of cells were seeded for HCT116 parental, HCT116-SN38 and HCT116-Oxa cell lines (7 × 10^4 cells/well) and LoVo parental, Lovo-SN38 and Lovo-Oxa cell lines (6 × 10^4 cells/well). 16–24 h later, culture medium was aspirated, and cells were washed once with 100 μl assay buffer (Hank’s Buffered Saline Solution supplemented with 20 mM HEPES, 1 mM CaCl2 and 1 mM MgCl2, pH 7.4). 50 μl assay buffer supplemented with 100 nM [^3H]-D-Asp and test compounds as indicated was added, and the plate was incubated at 37 °C for 6 min. Non-specific [^3H]-D-Asp uptake was determined in wells with 3 mM L-glutamate. The assay mixture was quickly removed, and wells were washed with 2 × 100 μl ice-cold assay buffer, followed by 150 μl Microscint™20 scintillation fluid (PerkinElmer). The plate was shaken for 1 h and counted in a Wallac 1450 MicroBeta Trilux scintillation counter (GMI, Ramsey, MN).

parental LoVo cells = assay: MTT viability assay, parental LoVo cells; details: 350 μM DL-TBOA, 48 h
Experimental: Fig. 2 DL-TBOA augments SN38-induced death in SN38-resistant cells, but protects oxaliplatin-resistant cells from oxaliplatin-induced death. Parental and drug-resistant HCT116 and LoVo cell lines seeded in 96-well dishes were exposed to SN38 (0.1 or 0.8 μM) or oxaliplatin (0.8 or 20 μM), alone or in combination with 70 or 350 μM DL-TBOA as indicated, for 48 h. Viability was assessed by MTT assay. a-b Parental HCT116 cells, (c) SN38 resistant HCT116 cells, (d) Oxaliplatin-resistant HCT116 cells, (e-f) Parental LoVo cells, (g) SN38 resistant LoVo cells, (h) Oxaliplatin-resistant LoVo cells. Data are means with S.E.M. error bars of 3 independent experiments. *) p < 0.05, **) p < 0.01, ***) p < 0.001 compared to the control group without drug or TBOA treatment; #) p < 0.05 compared to controls without TBOA treatment. One-way ANOVA followed by Dunnett post-test
Cells were seeded at appropriate density (LoVo 10,000, and HCT116 5000 cells /100 μl) in growth medium in 96-well plates. Next day, cells were treated with inhibitors and/or chemotherapy in a total volume of 200 μl in growth medium and incubated for 48 h at 37 °C, 5 % CO2. […] Absorbance was measured in an ELISA plate reader (Thermo Scientific MultiScan FC) at 550 nm. Data were background subtracted and % viability relative to controls calculated.

[2] = test system: [3H]-D-Asp uptake (glutamate transporter activity) in HCT116-SN38 cells; assay: [3H]-D-Asp uptake assay, HCT116-SN38; details: HCT116-SN38, 100 nM [3H]-D-Asp, 6 min, 37 °C
Experimental: as §1, §2

[3] = test system: retinoblastoma protein phosphorylation on Ser 807/811 (pRb); assay: pRb (Ser 807/811) level by Western blotting
Experimental: Cells were grown to a confluence of 60-80 % and treated with chemotherapy, siRNA- or plasmid transfection as indicated. Cells were washed once in PBS, lysed in lysis buffer (1 % SDS, 0.1 M Tris pH 7.5, and 1 mM Na3VO4), sonicated, and protein content determined (DC assay, BioRad). Lysates were mixed 2:1with NuPage LDS sample buffer (Invitrogen). SDS-PAGE was carried out in NOVEX chambers with NuPAGE 10 % Bis-Tris gels under reducing and denaturing conditions, using BenchMark protein ladder (Invitrogen), and 15 μg protein per lane. Proteins were transferred to PVDF membranes, which were Ponceau S stained, blocked for 1 h at 37 °C in 5 % nonfat dry milk in TBST (0.01 M Tris/HCl, 0.15 M NaCl, 0.1 % Tween 20, pH 7.4), incubated overnight at 4 °C with primary antibodies diluted in blocking buffer, washed in TBST, incubated with secondary antibodies for 1 h, washed in TBST, and developed using BCIP/NBT (KPL). Bands were scanned and quantified using UN-SCAN-IT (Silk Scientific).
Supplementary file 12885_2015_1405_MOESM5_ESM.tiff: Additional file 5: Figure S5. Effects of DL-TBOA on proliferation after chemotherapy treatment. Parental and drug-resistant HCT116 (A) and LoVo (B) cell lines seeded in 6-well dishes were exposed to SN38 (0.8 μM) or oxaliplatin (20 μM) alone or in combination with 350 μM DL-TBOA as indicated, for 24 h. Equal amounts of protein per lane were separated by SDS-PAGE and the protein levels of phosphorylation of retinoblastoma protein on Ser 807/811 (pRb) were determined by Western blotting. Top: Representative Western blots, with β-actin as loading control. Bottom: Densitometric quantifications based on 3 independent experiments per condition. Data are means with S.E.M. error bars of 3 independent experiments. Two-way ANOVA with Tukey post-test.

[4] = test system: [3H]-D-Asp uptake in HCT116 and LoVo cells (parental and resistant); assay: [3H]-D-Asp uptake assay, summary over cell lines; details: all cell lines; read-out: IC50 values, inhibition of basal [3H]-D-Asp uptake
Experimental: as §1, §2

[5] = read-out: IC50, [3H]-D-Asp uptake

N[C@H](C(=O)O)[C@H](OCc1ccccc1)C(=O)O (racemic) [TBOA, DL-Threo-β-Benzyloxyaspartic acid]
pIC50 ± S.E.M., [3H]-D-Asp uptake [1]: 5.75 ± 0.03
IC50 [1, 5]: 1.8 µM
effect on loss of viability induced by 0.8 μM oxaliplatin (parental LoVo cells): essentially abolished the loss of viability
pIC50 ± S.E.M., [3H]-D-Asp uptake [2]: 5.83 ± 0.08
IC50 [2, 5]: 1.5 µM
effect on cellular level of phospho-Retinoblastoma protein ([3]; DL-TBOA, HCT116 and LoVo cells): did not significantly alter
effect on pRb level after oxaliplatin treatment ([3]; all cell types except oxaliplatin-resistant HCT116, 350 μM DL-TBOA + 20 μM oxaliplatin, 24 h, not statistically significant): slightly but consistently decreased pRb levels
effect on pRb level ([3]; control conditions, both parental cell lines, 350 μM DL-TBOA, 24 h, not statistically significant): tended to increase pRb levels
IC50 [4]: ~2 µM
